Data as given in paper PMC9810167, “Novel dual LSD1/HDAC6 inhibitor for the treatment of cancer” (PLOS ONE, 2023).
Like-named read-outs stand apart in the source and are kept apart here.

What was measured:
HEL 92.1.7 = assay: Cell proliferation assay (Alamar Blue); type: cell-based, human; details: for EC50: Homo sapiens
Method: Cells were seeded in NUNC 96-well tissue culture plates (Life Technologies) in […] culture medium and incubated at 37°C/ 5% CO2 to adhere to plastic for 18–24 h. […] One set of plates (designated for the 144 h read out) were centrifuged at low speed for 30 seconds, and respective compounds were replenished in fresh media and incubated for another 68–72 h at 37°C/ 5% CO2. […] The inhibition curve was then fitted by plotting % inhibition against log concentration in GraphPad Prism 5.0 (GraphPad Software, Inc.) and the GI50 value of compound was determined. Data are representative of at least two independent experiments.

MM1.S xenograft = assay: MM1.S multiple myeloma xenograft model; type: in vivo; details: single agents (Bortezomib 0.5 mg/kg IP BIW; Pomalidomide 2.5 mg/kg PO 5x/week)
class I HDACs = test system: class I HDACs; design: method as in PMID 22262760; details: read-out: potency on class I HDACs; cited from earlier work

N[C@H]1CC[C@H](N[C@@H]2C[C@H]2c2ccccc2)CC1 [Iadademstat]
anti-proliferative EC50, 72 h (HEL 92.1.7; HEL92.1.7, 3 days (72 h) of incubation): did not show any measurable anti-proliferative activity | cell growth inhibition reached (plateau) (HEL 92.1.7; HEL92.1.7, 6 days of incubation, up to 10 μM): 50–60%

Nc1cccc2c1C(=O)N(C1CCC(=O)NC1=O)C2=O (stereo not drawn) [Pomalidomide, reference compound]
tolerability (MM1.S xenograft): well tolerated

O=C(CCCCCCNC(=O)c1cnc(N(c2ccccc2)c2ccccc2)nc1)NO [Ricolinostat]
EC50 (HEL 92.1.7; HEL 92.1.7, read-out: anti-proliferative EC50, HEL92.1.7, 3 days (72 h) of incubation): 4.4 µM | EC50 (HEL 92.1.7; HEL 92.1.7, Leukemia, 144 h, read-out: EC50, 144hr): 3.7 µM | IC50 (class I HDACs): ~0.05 µM
